Data reported in ChEMBL document CHEMBL5316298, “Discovery of Amphiphilic Xanthohumol Derivatives as Membrane-Targeting Antimicrobials against Methicillin-Resistant Staphylococcus aureus” (J Med Chem, 2023).
The source made the active and inactive calls. The calls are words filed in the database; no cut-off is given here.

How the values were obtained:
[1] = Toxicity in KM mouse assessed as pathological changes in spleen at 20 mg/kg, sc administered into middle dorsum and measured after 24 hrs by H and E staining based analysis; format: organism-based; conditions: in vivo
Cell membrane [2] = experiment: Disruption of membrane integrity in methicillin-resistant Staphylococcus aureus 3 assessed as increase in red fluorescence at 8 times MIC incubated for 4 hrs by DAPI/PI staining based laser confocal microscopic analysis; format: subcellular
Staphylococcus aureus [3] = experiment: Bactericidal activity against Staphylococcus aureus ATCC 29213 at 4 times MIC by time kill assay; format: functional, organism-based; conditions: time 0-8 hrs, TDE = time-dependent effect
L02 = experiment: Cytotoxicity against human L02 cells assessed as reduction in cell viability at 64 ug/ml incubated for 24 hrs by CCK-8 assay; format: toxicity, cell-based; conditions: l02, 24 h, dose 64 µg/ml
[4] = Toxicity in KM mouse assessed as pathological changes in kidneys at 20 mg/kg, sc administered into middle dorsum and measured after 24 hrs by H and E staining based analysis; format: organism-based; conditions: in vivo
Staphylococcus aureus [5] = experiment: Bactericidal activity against methicillin-resistant Staphylococcus aureus 3 incubated for 6 hrs in presence of 50% sheep plasma; format: functional, organism-based
[6] = Toxicity in KM mouse assessed as effect on hematocrit level at 20 mg/kg, sc administered into middle dorsum and measured after 24 hrs by routine blood test; format: organism-based; conditions: in vivo
[7] = Toxicity in KM mouse assessed as effect on albumin level at 20 mg/kg, sc administered into middle dorsum and measured after 24 hrs by routine blood test; format: organism-based; conditions: in vivo
[8] = Toxicity in KM mouse infected with methicillin-resistant Staphylococcus aureus 3 assessed as heart damage at 5 to 10 mg/kg administered into skin infection site measured after 24 hrs by H and E staining based analysis; format: organism-based; conditions: in vivo, topical_or_ocular, dose 5-10 mg/kg
Staphylococcus aureus [9] = experiment: Antibacterial activity against methicillin-resistant Staphylococcus aureus clinical isolate 2 incubated for 16 to 18 hrs by CLSI-based microbroth dilution method; format: functional; conditions: time 16-18 hrs
Staphylococcus aureus [10] = experiment: Antibacterial activity against methicillin-resistant Staphylococcus aureus 3 infected in KM mouse assessed as reduction in inflammatory cells in subcutaneous tissue at 5 to 10 mg/kg administered into skin infection site measured after 24 hrs by H and E staining based analysis; format: functional, organism-based; conditions: dose 5-10 mg/kg
Staphylococcus aureus [11] = experiment: Antibacterial activity against Staphylococcus aureus ATCC 29213 incubated for 16 to 18 hrs by CLSI-based microbroth dilution method; format: functional; conditions: time 16-18 hrs
[12] = Toxicity in KM mouse assessed as pathological changes in liver at 20 mg/kg, sc administered into middle dorsum and measured after 24 hrs by H and E staining based analysis; format: organism-based; conditions: in vivo
Staphylococcus aureus [13] = experiment: Antibacterial activity against methicillin-resistant Staphylococcus aureus clinical isolate 4 incubated for 16 to 18 hrs by CLSI-based microbroth dilution method; format: functional; conditions: time 16-18 hrs
[14] = Toxicity in KM mouse infected with methicillin-resistant Staphylococcus aureus 3 assessed as lung damage at 5 to 10 mg/kg administered into skin infection site measured after 24 hrs by H and E staining based analysis; format: organism-based; conditions: in vivo, topical_or_ocular, dose 5-10 mg/kg
Staphylococcus aureus [15] = experiment: Anti-MRSA activity against methicillin-resistant Staphylococcus aureus 3 incubated for 16 to 18 hrs in presence of 64 ug/ml phosphatidylglycerol by checkerboard broth dilution method (reference value: 1 ug/ml); format: functional; conditions: time 16-18 hrs
[16] = Toxicity in KM mouse assessed as pathological changes in heart at 20 mg/kg, sc administered into middle dorsum and measured after 24 hrs by H and E staining based analysis; format: organism-based; conditions: in vivo
[17] = Toxicity in KM mouse assessed as mortality at 5 to 80 mg/kg, sc administered into middle dorsum and measured after 24 hrs; format: organism-based; conditions: in vivo, dose 5-80 mg/kg
Staphylococcus aureus [18] = experiment: Anti-MRSA activity against methicillin-resistant Staphylococcus aureus 3 incubated for 16 to 18 hrs in presence of 0 to 32 ug/ml cardiolipin by checkerboard broth dilution method; format: functional; conditions: time 16-18 hrs
Staphylococcus aureus [19] = experiment: Antibacterial activity against methicillin-resistant Staphylococcus aureus 3 infected in KM mouse assessed as reduction in skin lesions/abscesses in subcutaneous tissue at 10 mg/kg administered into skin infection site measured after 24 hrs; format: functional, organism-based
Staphylococcus aureus [20] = experiment: Antibacterial activity against methicillin-resistant Staphylococcus aureus clinical isolate 7 incubated for 16 to 18 hrs by CLSI-based microbroth dilution method; format: functional; conditions: time 16-18 hrs
[21] = Toxicity in KM mouse infected with methicillin-resistant Staphylococcus aureus 3 assessed as liver damage at 5 to 10 mg/kg administered into skin infection site measured after 24 hrs by H and E staining based analysis; format: organism-based; conditions: in vivo, topical_or_ocular, dose 5-10 mg/kg
Staphylococcus aureus [22] = experiment: Induction of ROS production in methicillin-resistant Staphylococcus aureus 3 assessed as increase in intracellular ROS level incubated for 40 mins by DCFH-DA dye based fluorescence analysis; format: functional, organism-based; conditions: dose 0-64 µg/ml
Staphylococcus aureus [23] = experiment: Antibacterial activity against methicillin-resistant Staphylococcus aureus clinical isolate 10 incubated for 16 to 18 hrs by CLSI-based microbroth dilution method; format: functional; conditions: time 16-18 hrs
[24] = Toxicity in KM mouse infected with methicillin-resistant Staphylococcus aureus 3 assessed as multifocal enlargement of hepatocytes with cytoplasmic foamy swelling at 5 to 10 mg/kg administered into skin infection site measured after 24 hrs by H and E staining based analysis; format: organism-based; conditions: in vivo, topical_or_ocular, dose 5-10 mg/kg
Staphylococcus aureus [25] = experiment: Antibacterial activity against methicillin-resistant Staphylococcus aureus clinical isolate 1 incubated for 16 to 18 hrs by CLSI-based microbroth dilution method; format: functional; conditions: time 16-18 hrs
Staphylococcus aureus [26] = experiment: Antibacterial activity against methicillin-resistant Staphylococcus aureus 3 infected in KM mouse assessed as reduction in bacterial load at infection site at 5 mg/kg administered into skin infection site measured after 24 hrs relative to control; format: functional; set-up: scale not given: the % may be the effect or the level left
[27] = Toxicity in KM mouse assessed as effect on platelet count at 20 mg/kg, sc administered into middle dorsum and measured after 24 hrs by routine blood test; format: organism-based; conditions: in vivo
Cell membrane [28] = experiment: Disruption of membrane integrity in methicillin-resistant Staphylococcus aureus 3 assessed as increase in DNA leakage at 1 to 8 times MIC incubated for 4 hrs by microspectrophotometer analysis; format: subcellular
[29] = Toxicity in KM mouse infected with methicillin-resistant Staphylococcus aureus 3 assessed as vacuolar degeneration in the kidneys at 5 to 10 mg/kg administered into skin infection site measured after 24 hrs by H and E staining based analysis; format: organism-based; conditions: in vivo, topical_or_ocular, dose 5-10 mg/kg
Cell membrane [30] = experiment: Disruption of membrane integrity in methicillin-resistant Staphylococcus aureus 3 assessed as increase in protein leakage at 1 to 8 times MIC incubated for 4 hrs by microspectrophotometer analysis; format: subcellular
Staphylococcus aureus [31] = experiment: Anti-MRSA activity against methicillin-resistant Staphylococcus aureus 3 incubated for 16 to 18 hrs in presence of 0 to 32 ug/ml phosphatidylglycerol by checkerboard broth dilution method; format: functional; conditions: time 16-18 hrs
Staphylococcus aureus [32] = experiment: Antibacterial activity against methicillin-resistant Staphylococcus aureus 3 infected in KM mouse assessed as reduction in bacterial load at infection site by measuring colony forming units at 5 mg/kg administered into skin infection site measured after 24 hrs; format: functional
[33] = Toxicity in KM mouse infected with methicillin-resistant Staphylococcus aureus 3 assessed as kidney damage at 5 to 10 mg/kg administered into skin infection site measured after 24 hrs by H and E staining based analysis; format: organism-based; conditions: in vivo, topical_or_ocular, dose 5-10 mg/kg
Cell membrane [34] = experiment: Disruption of membrane integrity in methicillin-resistant Staphylococcus aureus 3 assessed as appearance of wrinkled cell surface at 16 ug/ml incubated for 240 mins by SEM analysis; format: subcellular; conditions: dose 16.0 µg/ml
Staphylococcus aureus [35] = experiment: Antibacterial activity against methicillin-resistant Staphylococcus aureus 3 infected in KM mouse assessed as reduction in size of abscesses at 5 mg/kg administered into skin infection site measured after 24 hrs; format: functional, organism-based

Structure (SMILES): CCCN(CCC)C(=O)C[N+](C)(C)CCCCOc1ccc(/C=C/C(=O)c2c(OC)cc3c(c2O)C=CC(C)(C)O3)cc1.[Br-]
- Activity [1]: Non-Toxic
- Activity (Cell membrane [2]): Active
- Activity (Staphylococcus aureus [3]): Tde
- Activity (L02): Non-Toxic
- Activity [4]: Non-Toxic
- Activity (Staphylococcus aureus [5]): Active
- Activity [6]: Non-Toxic
- Activity [7]: Non-Toxic
- Activity [8]: Non-Toxic
- MIC (Staphylococcus aureus [9]): 2 µg/mL
- Activity (Staphylococcus aureus [10]): Active
- MIC (Staphylococcus aureus [11]): 1 µg/mL
- Activity [12]: Non-Toxic
- MIC (Staphylococcus aureus [13]): 2 µg/mL
- Activity [14]: Non-Toxic
- MIC (Staphylococcus aureus [15]): 32 µg/mL
- Activity [16]: Non-Toxic
- Activity [17]: Non-Toxic
- MIC (Staphylococcus aureus [18]): 1 µg/mL
- Activity (Staphylococcus aureus [19]): Active
- MIC (Staphylococcus aureus [20]): 2 µg/mL
- Activity [21]: Non-Toxic
- Activity (Staphylococcus aureus [22]): Active
- MIC (Staphylococcus aureus [23]): 1 µg/mL
- Activity [24]: Non-Toxic
- MIC (Staphylococcus aureus [25]): 2 µg/mL
- Activity (Staphylococcus aureus [26]): 99.905%
- Activity [27]: Non-Toxic
- Activity (Cell membrane [28]): Dose-Dependent Effect
- Activity [29]: Non-Toxic
- Activity (Cell membrane [30]): Dose-Dependent Effect
- MIC (Staphylococcus aureus [31]): 1 µg/mL
- Activity (Staphylococcus aureus [32]): 3 log10CFU/g
- Activity [33]: Non-Toxic
- Activity (Cell membrane [34]): Active
- Activity (Staphylococcus aureus [35]): Active
